This assay has as its system P388 leukemia ip, CD2F1 mice, survival T/C. As to the kind of experiment: NCI In Vivo Anticancer Drug Screen. Data for tumor model P388 Leukemia (intraperitoneal) in CD2F1 (CDF1) mice. The conditions noted are these: endpoint: median survival time, higher = longer survival. The gist of the method: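 Mice carrying the transplanted tumor received test compound or vehicle. Survival was recorded in each group, and the value is the treated-group measurement divided by that of the vehicle-treated control group.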

Where [1] appears, read: dose: 6.25 mg/kg/injection, schedule: Q01DX009 (ip), vehicle: saline.
Setting [2] is: dose: 12.5 mg/kg/injection, schedule: Q01DX009 (ip), vehicle: saline.
Setting [3] is: dose: 25.0 mg/kg/injection, schedule: Q01DX009 (ip), vehicle: saline.
Where [4] appears, read: dose: 100.0 mg/kg/injection, schedule: Q04DX003 (ip), vehicle: saline with Tween-80.
Where [5] appears, read: dose: 200.0 mg/kg/injection, schedule: Q04DX003 (ip), vehicle: saline with Tween-80.
The mark [6] stands for this setting: dose: 50.0 mg/kg/injection, schedule: Q01DX005 (ip), vehicle: Klucel (hydroxypropylcellulose) (HPC).
The mark [7] stands for this setting: dose: 100.0 mg/kg/injection, schedule: Q01DX005 (ip), vehicle: Klucel (hydroxypropylcellulose) (HPC).
[8] abbreviates: dose: 200.0 mg/kg/injection, schedule: Q01DX005 (ip), vehicle: Klucel (hydroxypropylcellulose) (HPC).
The mark [9] stands for this setting: dose: 100.0 mg/kg/injection, schedule: Q04DX002 (ip), vehicle: saline with Tween-80.
The mark [10] stands for this setting: dose: 50.0 mg/kg/injection, schedule: Q01DX005 (ip), vehicle: saline with Tween-80.
Where [11] appears, read: dose: 100.0 mg/kg/injection, schedule: Q01DX005 (ip), vehicle: saline with Tween-80.
Setting [12] is: dose: 200.0 mg/kg/injection, schedule: Q01DX005 (ip), vehicle: saline with Tween-80.

The structures appear in SMILES notation. Where “and” joins values, the source holds several entries; their conditions need not be identical. Equal entries are not always repeated. Toxic doses and inconclusive results are not listed. Square brackets hold non-standard residues; d marks the D form. Peptide text beside a SMILES is read from it. * marks the point of attachment. ξ: configuration not given here. Cbz = O=C(OCc1ccccc1)*; Nva = CCC[CH](N)C(=O)O; Bn = c1ccc(C*)cc1; ξC = NC(CS)C(=O)O

`COc1cc(C(C)(C)C)cc(OC)c1C(O)(c1c(OC)cc(C(C)(C)C)cc1OC)c1c(OC)cc(C(C)(C)C)cc1OC`: the T/C by setting is: (dose: 25.0 mg/kg/injection, schedule: Q01DX009 (ip), vehicle: saline with Tween-80) 121 % of control; (dose: 100.0 mg/kg/injection, schedule: Q01DX009 (ip), vehicle: saline with Tween-80) 104 % of control.
On to `CC1=CC(=O)[C@@H](O)[C@]2(C)[C@H]3[C@@]4(O)OC[C@]35[C@H]([C@@H](C)[C@H]4O)[C@@H](O)C(=O)O[C@@H]5C[C@@H]12`, for which the T/C is 115 % of control under setting [1], 104 % of control under setting [2] and 115 % of control under setting [3].
On to `CCCC[Si](O)(CCCC)CCCC`, for which the T/C reads like this: (dose: 50.0 mg/kg/injection, schedule: Q01DX009 (ip), vehicle: saline) 100 % of control; (dose: 100.0 mg/kg/injection, schedule: Q01DX009 (ip), vehicle: saline) 102 % of control; (dose: 200.0 mg/kg/injection, schedule: Q01DX009 (ip), vehicle: saline) 100 % of control.
Consider `CNCCCC1c2ccccc2C=Cc2ccccc21`, for which the T/C under setting [1] is 100 % of control and the T/C under setting [2] is 90 % of control.
With `CN(CCCc1nc2ccccc2[nH]1)N=O`, the T/C is 100 % of control (dose: 100.0 mg/kg/injection, schedule: Q04DX003 (ip), vehicle: Klucel (hydroxypropylcellulose) (HPC)); 101 % of control (dose: 200.0 mg/kg/injection, schedule: Q04DX003 (ip), vehicle: Klucel (hydroxypropylcellulose) (HPC)); 100 % of control (dose: 400.0 mg/kg/injection, schedule: Q04DX003 (ip), vehicle: Klucel (hydroxypropylcellulose) (HPC)).
With `Cc1ccc2c(c1)C=CC(C#N)N2C(=O)OCc1ccccc1` (configuration not stated), the T/C was 90 % of control under setting [4] and 95 % of control under setting [5].
As to `O=C(CNC(=O)OCc1ccccc1)NCC(=O)NC(CSCc1ccccc1)C(=O)O` (stereo not drawn) (Cbz-Gly-Gly-[ξC](Bn)-OH), the T/C is, setting by setting: under setting [6], 101 % of control; under setting [7], 100 % of control; under setting [8], 100 % of control.
In the case of `O=C(c1ccccc1)C1C(=O)c2cc3c(cc2C1=O)C(=O)C(C(=O)c1ccccc1)C3=O`, the T/C is, setting by setting: (dose: 25.0 mg/kg/injection, schedule: Q04DX002 (ip), vehicle: saline with Tween-80) 99 % of control; (dose: 50.0 mg/kg/injection, schedule: Q04DX002 (ip), vehicle: saline with Tween-80) 95 % of control; under setting [9], 95 % of control.
With `CC(C=O)CC1CCCCC1` (configuration not stated), the T/C was 100 % of control (dose: 50.0 mg/kg/injection, schedule: Q04DX003 (ip), vehicle: saline with Tween-80); 100 % of control under setting [4]; 109 % of control under setting [5].
Regarding `CCN(CC)C/C(C)=C(/c1ccccc1)c1ccccc1S(N)(=O)=O`, the T/C by setting is: (dose: 100.0 mg/kg/injection, schedule: Q01DX001 (ip), vehicle: Klucel (hydroxypropylcellulose) (HPC)) 116 % of control; (dose: 200.0 mg/kg/injection, schedule: Q01DX001 (ip), vehicle: Klucel (hydroxypropylcellulose) (HPC)) 111 % of control.
Regarding `C[As](C)SCC1OC(n2ccc(=O)[nH]c2=O)C2OC(C)(C)OC12` (configuration not stated), the T/C was 103 % of control (dose: 12.5 mg/kg/injection, schedule: Q01DX009 (ip), vehicle: distilled water + Tween-80); 110 % of control (dose: 25.0 mg/kg/injection, schedule: Q01DX009 (ip), vehicle: distilled water + Tween-80); 116 % of control (dose: 50.0 mg/kg/injection, schedule: Q01DX009 (ip), vehicle: distilled water + Tween-80); 113 % of control (dose: 100.0 mg/kg/injection, schedule: Q01DX009 (ip), vehicle: distilled water + Tween-80).
For `CCCN1CCc2c([nH]c3cc(OC)ccc23)C1C` (configuration not stated), the T/C by setting is: under setting [10], 100 % of control; under setting [11], 108 % of control.
In the case of `CCCOc1ccc(-c2nc(-c3ccc(N)cc3)cs2)cc1`, the T/C (dose: 50.0 mg/kg/injection, schedule: Q01DX009 (ip), vehicle: Klucel (hydroxypropylcellulose) (HPC)) was 111 % of control; the T/C (dose: 100.0 mg/kg/injection, schedule: Q01DX009 (ip), vehicle: Klucel (hydroxypropylcellulose) (HPC)) was 109 % of control; the T/C (dose: 200.0 mg/kg/injection, schedule: Q01DX009 (ip), vehicle: Klucel (hydroxypropylcellulose) (HPC)) is 109 % of control.
As for `CCCC(NC(=O)OCc1ccccc1)C(=O)NC(Cc1ccc(O)cc1)C(N)=O` (configuration not stated) (Cbz-[Nva]-Tyr-NH2; configuration not given here), the T/C is 92 % of control under setting [6], 100 % of control under setting [7] and 88 % of control under setting [8].
On to `C/C(=N\Nc1nncn2cccc12)c1ccccc1`, for which the T/C under setting [9] was 113 % of control; the T/C (dose: 200.0 mg/kg/injection, schedule: Q04DX002 (ip), vehicle: saline with Tween-80) is 120 % of control; the T/C (dose: 400.0 mg/kg/injection, schedule: Q04DX002 (ip), vehicle: saline with Tween-80) was 124 % of control.
In the case of `CN1C(=O)C2(C)SSC1(C)C(=O)N2C`, the T/C runs as follows: under setting [1], 110 % of control; under setting [2], 108 % of control; under setting [3], 107 % of control.
For the molecule `CN(CC(=O)NN)c1ccccc1`, the T/C was 93 % of control under setting [10], 95 % of control under setting [11] and 95 % of control under setting [12].
With `Cc1ccc(S(=O)(=O)OC2C(OCc3ccccc3)OCC(O)C2O)cc1` (configuration not stated), the T/C was 102 % of control under setting [10], 100 % of control under setting [11] and 100 % of control under setting [12].
For `CC(=O)OCC1OC(Nc2[nH]c(=O)n(C)c(=O)c2C=O)C(OC(C)=O)C(OC(C)=O)C1OC(C)=O` (configuration not stated), the T/C by setting is: (dose: 60.0 mg/kg/injection, schedule: Q01DX005 (ip), vehicle: saline with Tween-80) 105 % of control; (dose: 120.0 mg/kg/injection, schedule: Q01DX005 (ip), vehicle: saline with Tween-80) 109 % of control; (dose: 240.0 mg/kg/injection, schedule: Q01DX005 (ip), vehicle: saline with Tween-80) 103 % of control.
For the molecule `Cc1c(Cl)cccc1Nc1ncccc1C(=O)O`, the T/C under setting [10] is 95 % of control and the T/C under setting [11] was 105 % of control.
In the case of `CC[C@@]1(O)C(=O)OCc2c1cc1n(c2=O)Cc2cc3ccccc3nc2-1`, the T/C reads like this: (dose: 0.25 mg/kg/injection, schedule: Q04DX003 (ip), vehicle: other) 109 % of control; (dose: 0.5 mg/kg/injection, schedule: Q04DX003 (ip), vehicle: other) 119 % of control and 122 % of control; (dose: 0.79 mg/kg/injection, schedule: Q04DX003 (ip), vehicle: other) 151 % of control; (dose: 1.0 mg/kg/injection, schedule: Q04DX003 (ip), vehicle: other) 163 % of control; (dose: 1.5 mg/kg/injection, schedule: Q01DX005 (ip), vehicle: saline with Tween-80) 153 % of control and 161 % of control (2×); (dose: 1.57 mg/kg/injection, schedule: Q04DX003 (ip), vehicle: other) 161 % of control. The T/C runs as follows: (dose: 1.6 mg/kg/injection, schedule: Q04DX003 (ip), vehicle: saline with Tween-80) 150 % of control; (dose: 2.0 mg/kg/injection, schedule: Q04DX003 (ip), vehicle: other) 157 % of control and 158 % of control; (dose: 2.1 mg/kg/injection, schedule: Q01DX005 (ip), vehicle: saline with Tween-80) 187 % of control; (dose: 2.5 mg/kg/injection, schedule: Q04DX003 (ip), vehicle: saline with Tween-80) 181 % of control; (dose: 3.0 mg/kg/injection, schedule: Q01DX005 (ip), vehicle: saline with Tween-80) 192 % of control and 194 % of control and 196 % of control; (dose: 3.13 mg/kg/injection, schedule: Q04DX003 (ip), vehicle: other) 278 % of control. In addition, the T/C (dose: 3.6 mg/kg/injection, schedule: Q01DX005 (ip), vehicle: saline with Tween-80) was 277 % of control; the T/C (dose: 4.0 mg/kg/injection, schedule: Q04DX003 (ip), vehicle: other) is 155 % of control and 197 % of control and 245 % of control; the T/C (dose: 5.0 mg/kg/injection, schedule: Q04DX002 (ip), vehicle: saline with Tween-80) is 175 % of control; the T/C (dose: 8.0 mg/kg/injection, schedule: Q04DX003 (ip), vehicle: other) was 92 % of control; the T/C (dose: 12.0 mg/kg/injection, schedule: Q01DX005 (ip), vehicle: saline with Tween-80) was 87 % of control.

The values are drawn from PubChem BioAssay AID330 (DTP/NCI, 2004).
